From patent US6482921B1, “Uridyl peptide antibiotic (UPA) derivatives, their synthesis and use” (Essential Therapeutics, Inc., priority 1999, dated 2002)
In brackets after ≈: the same amount, converted by molar mass.

What was measured:
Assay type in all cases: cell-based
[1] = test system: Pseudomonas aeruginosa PAM 1154; assay: MIC broth microdilution, P. aeruginosa PAM 1154 (OprM::Hg); details: P. aeruginosa PAM 1154 OprM::Hg
[2] = test system: Pseudomonas aeruginosa PAM 1323; assay: MIC broth microdilution, P. aeruginosa PAM 1323 (medium level UPA resistance)
Procedure: Compounds were tested against several panels of bacteria. In a first panel, Table 3, several strains of Pseudomonas aeruginosa, Escherichia coli and Staphylococcus aureus were employed as the target bacteria.
For the bacteria in Table 3, the assay was performed in Mueller-Hinton Broth (MHB) with a final bacterial inoculum of 5×10^5 CFU/ml and a final volume of 100 μl. Control drugs, including imipenem and pacidimycin 4, and the test compounds were prepared at a concentration which was twice the desired final concentration (256 μg/ml). Dilution of the controls and the test compounds was accomplished directly on the test plates by serial 2-fold dilution using a multi-channel pipette. Both a positive and a negative growth control was included in each plate.
The bacterial inocula were prepared as follows. Bacterial strains were grown overnight at 35° C. in MHB. […] The culture was then diluted 1:10 and allowed to grow for an additional one hour at 35° C. in a shaking incubator. The inocula were then prepared by diluting the early log phase (one hour) cultures 1:2000 with fresh MHB. A volume of 50 μl of the inocula was added to each well, resulting in an inoculum of approximately 5×10^5 CFU/ml. The exact inocula were determined by putting 10 μl of 10-fold serial dilution of the bacterial suspensions onto TSA. After overnight incubation at 35° C., colony-forming units were counted manually.
The microtiter plates were incubated for 20 hours at 35° C. and were then read using a microtiterplate reader (Molecular Devices) at 650 nm as well as being visually observed using a microtiterplate reading mirror.

[3] = test system: Escherichia Coli MC 4100 AcrAB; assay: MIC broth microdilution, E. coli MC 4100 AcrAB (ΔAcrAB); details: E. coli AcrAB
[4] = test system: Pseudomonas aeruginosa PAM 1020; assay: MIC broth microdilution, P. aeruginosa PAM 1020 (wild type); details: P. aeruginosa PAM 1020
[5] = test system: Escherichia Coli MC 4100 AcrAB UPA3r; assay: MIC broth microdilution, E. coli MC 4100 AcrAB UPA3r (ΔAcrAB, UPA resistant); details: E. coli AcrAB UPA3^r
[6] = test system: Pasteurella multocida pm002; assay: MIC broth microdilution, P. multocida pm002 (wild type)
[7] = test system: Staphylococcus aureus 8325-4; assay: MIC broth microdilution, S. aureus 8325-4 (wild type); details: S. aureus 8325-4
[8] = test system: Staphylococcus aureus ATCC 29213; assay: MIC broth microdilution, S. aureus ATCC 29213 (wild type); details: S. aureus ATCC 29213
[9] = test system: Pseudomonas aeruginosa PAM 1135; assay: MIC broth microdilution, P. aeruginosa PAM 1135 (high level UPA resistance); details: P. aeruginosa PAM 1135 UPA1^r
Escherichia Coli MC 4100 = assay: MIC broth microdilution, E. coli MC 4100 (wild type); details: E. coli MC 4100

Row | Molecule | MIC (μg/ml) Broth microdilution [1] [µg/mL] | MIC (μg/ml) Broth microdilution [2] [µg/mL] | MIC (μg/ml) Broth microdilution [3] [µg/mL] | MIC (μg/ml) Broth microdilution [4] [µg/mL] | MIC (μg/ml) Broth microdilution [5] [µg/mL] | MIC (μg/ml) Broth microdilution [6] [µg/mL] | MIC (μg/ml) Broth microdilution [7] [µg/mL] | MIC (μg/ml) Broth microdilution [8] [µg/mL] | MIC (μg/ml) Broth microdilution [9] [µg/mL] | MIC (μg/ml) Broth microdilution (Escherichia Coli MC 4100) [µg/mL]
1 | CC(C(NC(=O)C(Cc1ccc(F)cc1)NC(=O)NC(Cc1c[nH]c2ccccc12)C(=O)O)C(=O)NCC1CC(O)C(n2ccc(=O)[nH]c2=O)O1)N(C)C(=O)CN [Compound 116, 1-[5′-[(2S,3S)-N^2-[N-[[(1S)-1-Carboxy-2-indol-3-ylethyl)carbamoyl]-L-4-fluorophenylalanyl]-N^3-glycyl-N^3-methyl-3-diaminobutyramido]-3′,5′-dideoxy-α-L-arabinofuranosyl]uracil] | 8 (≈ 10.1 µM) | 512 (≈ 645 µM) | <1 | 32 (≈ 40.3 µM) | 16 (≈ 20.2 µM) | 128 (≈ 161 µM) | 256 (≈ 322 µM) | 512 (≈ 645 µM) | >512 | 256 (≈ 322 µM)
2 | C[C@H](N)C(=O)N(C)[C@@H](C)[C@H](NC(=O)[C@H](Cc1ccc2ccccc2c1)NC(=O)N[C@@H](Cc1ccc(O)cc1)C(=O)O)C(=O)NC[C@H]1C[C@@H](O)[C@H](n2ccc(=O)[nH]c2=O)O1 [Compound 152, 1-[5′-[(2S,3S)-N^3-L-Alanyl-N^2-[N-[[(1S)-1-carboxy-4-hydroxyphenethyl)carbamoyl]-L-3-(2-naphthyl)alanyl]-N^3-methyl-2,3-diaminobutyramido]-3′,5′-dideoxy-α-L-arabinofuranosyl]uracil] | 64 (≈ 78.3 µM) | >512 | 2 (≈ 2.45 µM) | 256 (≈ 313 µM) | 64 (≈ 78.3 µM) | >512 | >512 | >512 | >512 | 256 (≈ 313 µM)
3 | CC(C(NC(=O)C(Cc1ccccc1)NC(=O)NC(Cc1ccc(O)cc1)C(=O)O)C(=O)NCC1CC(O)C(n2ccc(=O)[nH]c2=O)O1)N(C)C(=O)CN [Compound 102, 1-[5′-[(2S,3S)-N^2-[N-[[(1S)-1-Carboxy-4-hydroxyphenethyl]carbamoyl]-L-phenylalanyl]-N^3-glycyl-N^3-methyl-2,3-diaminobutyramido]-3′,5′-dideoxy-α-L-arabinofuranosyl]uracil] | 8 (≈ 10.6 µM) | 512 (≈ 680 µM) | <1 | 32 (≈ 42.5 µM) | 16 (≈ 21.3 µM) | 256 (≈ 340 µM) | 512 (≈ 680 µM) | >512 | >512 | 512 (≈ 680 µM)
4 | CSCCC(NC(=O)NC(Cc1c[nH]c2ccccc12)C(=O)O)C(=O)NC(C(=O)NCC1CC(O)C(n2ccc(=O)[nH]c2=O)O1)C(C)N(C)C(=O)C(N)Cc1ccc(F)cc1 [Compound 110, 1-[5′-[(2S,3S)-N^2-[N-[[(1S)-1-Carboxy-2-indol-3-ylethyl]carbamoyl]-L-methionyl]-N^3-L-4-fluorophenylalanyl-N^3-methyl-2,3-diaminobutyramido]-3′,5′-dideoxy-α-L-arabinofuranosyl]uracil] | 32 (≈ 36.9 µM) | 256 (≈ 295 µM) | 16 (≈ 18.4 µM) | 64 (≈ 73.7 µM) | 512 (≈ 590 µM) | 512 (≈ 590 µM) | >512 | >512 | 256 (≈ 295 µM) | 512 (≈ 590 µM)
5 | CC(NC(=O)NC(Cc1c[nH]c2ccccc12)C(=O)O)C(=O)NC(C(=O)NCC1CC(O)C(n2ccc(=O)[nH]c2=O)O1)C(C)N(C)C(=O)CN [Compound 121, 1-[5′1-[(2S,3S)-N^2-[N-[[(1S)-1-Carboxy-2-indol-3-ylethyl)carbamoyl]-L-alanyl]-N^3-glycyl-N^3-methyl-2,3-diaminobutyramido]-3′,5′-dideoxy-α-L-arabinofuranosyl]uracil] | 4 (≈ 5.72 µM) | >512 | 2 (≈ 2.86 µM) | 64 (≈ 91.5 µM) | 16 (≈ 22.9 µM) | >512 | >512 | >512 | >512 | >512
6 | CC(C)C[C@H](NC(=O)N[C@@H](Cc1c[nH]c2ccccc12)C(=O)O)C(=O)N[C@H](C(=O)NC[C@H]1C[C@@H](O)[C@H](n2ccc(=O)[nH]c2=O)O1)[C@H](C)N(C)C(=O)[C@H](C)N [Compound 170, 1-[5′-[(2S,3S)-N^3-L-Alanyl-N^2-[N-[[(1S)-1-carboxy-2-indol-3-ylethyl)carbamoyl]-L-leucinyl]-N^3-methyl-2,3-diaminobutyramido]-3′,5′-dideoxy-α-L-arabinofuranosyl]uracil] | 4 (≈ 5.29 µM) | – | 2 (≈ 2.65 µM) | 64 (≈ 84.7 µM) | 1 (≈ 1.32 µM) | – | >512 | >512 | >512 | 128 (≈ 169 µM)
7 | C[C@H](N)C(=O)N(C)[C@@H](C)[C@H](NC(=O)[C@H](C)NC(=O)N[C@@H](Cc1c[nH]c2ccccc12)C(=O)O)C(=O)NC[C@@H]1C[C@@H](O)[C@@H](n2ccc(=O)[nH]c2=O)O1 [Compound 172, 1-[5′-[(2S,3S)-N^3-L-Alanyl-N^2-[N-[[(1S)-1-carboxy-2-indol-3-ylethyl]carbamoyl]-L-alanyl]-N^3-methyl-2,3-diaminobutyramido]-3′,5′-dideoxy-α-D-ribofuranosyl]uracil] | 4 (≈ 5.6 µM) | – | 128 (≈ 179 µM) | 64 (≈ 89.7 µM) | 16 (≈ 22.4 µM) | – | >512 | 512 (≈ 717 µM) | >512 | 16 (≈ 22.4 µM)
8 | CC(C(NC(=O)C(Cc1ccccc1)NC(=O)NC(Cc1c[nH]c2ccccc12)C(=O)O)C(=O)NCC1CC(O)C(n2ccc(=O)[nH]c2=O)O1)N(C)C(=O)C(N)CCCCN [Compound 147, 1-[5′-[(2S,3S)-N^2-[N-[[(1S)-1-Carboxy-2-indol-3-ylethyl]carbamoyl]-L-phenylalanyl]-N^3-L-lysinyl-N^3-methyl-2,3-diaminobutyramido]-3′,5′-dideoxy-α-L-arabinofuranosyl]uracil] | 16 (≈ 18.9 µM) | – | >512 | 32 (≈ 37.8 µM) | >512 | – | >512 | >512 | >512 | >512
9 | C[C@H](NC(=O)N[C@@H](Cc1c[nH]c2ccccc12)C(=O)O)C(=O)N[C@H](C(=O)NC[C@H]1C[C@@H](O)[C@H](n2ccc(=O)[nH]c2=O)O1)[C@H](C)N(C)C(=O)[C@@H](C)N [Compound 171, 1-[5′-[(2S,3S)-N^3-D-Alanyl-N^2-[N-[[(1S)-1-carboxy-2-indol-3-ylethyl]carbamoyl]-L-alanyl]-N^3-methyl-2,3-diaminobutyramido]-3′,5′-dideoxy-α-L-arabinofuranosyl]uracil] | 32 (≈ 44.8 µM) | – | 16 (≈ 22.4 µM) | 512 (≈ 717 µM) | 128 (≈ 179 µM) | – | >512 | >512 | >512 | >512
10 | Dihydropacidamycin 1 [Compound 5] | 16 | – | 8 | 64 | 32 | – | >512 | >512 | >512 | 512
